# In patent US6932961B1, “Oxazinocarbazoles for the treatment of CNS diseases” (Pharmacia & Upjohn Company, priority 2002, dated 2005):
# Counter-ions that a name gives are not always drawn.
# Molecular target: T1, cloned human 5-HT6 receptor (Homo sapiens, UniProt P50406)
# T1 construct: host or cells: HeLa cells (G-418 selected); membranes prepared from them
# Assay: 5-HT6 receptor binding assay ([3H]-LSD, SPA)
# Conditions: membranes of Hela cells containing cloned human 5-HT6 receptor; [3H]-LSD radioligand; Ki from estimated IC50 by Cheng-Prusoff
# Experimental: Growth of Cells and Membrane Preparation
# Hela cells containing the cloned human 5-HT6 receptor were acquired from Dr. David R. Sibley's laboratory in National Institute of Health (see Sibley, D. R., J. Neurochemistr, 66, 47-56, 1996). Cells were grown in high glucose Dulbecco's modified Eagle's medium, supplemented with L-glutamine, 0.5% sodium pyruvate, 0.3% penicillin-streptomycin, 0.025% G-418 and 5% Gibco fetal bovine serum and then were harvested, when confluent, in cold phosphate buffered saline.
# Harvested intact cells were washed once in cold phosphate-buffered saline. The cells were pelleted and resuspended in 100 ml of cold 50 mM Tris, 5 mM EDTA and 5 mM EGTA, pH 7.4. Homogenization was with a Vir Tishear generator, 4 cycles for 30 seconds each at setting 50. The homogenized cells were centrifuged at […] for 10 minutes and the supernatant was removed. The pellet was resuspended in 100 ml of the above buffer and rehomogenized for 2 cycles. The rehomogenized cells were then centrifuged at […] for 10 minutes and the supernatant was removed. The combined supernatant (200 ml) was centrifuged at 23,000 RPM (80,000×g) for 1 hour in a Beckman Rotor (42.1 Ti). […]
# The radioligand binding assay used [^3H]-lysergic acid diethylamide (LSD). […] The plates were then loaded into counting cassettes and counted in a Wallac MicroBeta Trilux scintillation counter. […]
# T1 sequence (P50406 whole entry): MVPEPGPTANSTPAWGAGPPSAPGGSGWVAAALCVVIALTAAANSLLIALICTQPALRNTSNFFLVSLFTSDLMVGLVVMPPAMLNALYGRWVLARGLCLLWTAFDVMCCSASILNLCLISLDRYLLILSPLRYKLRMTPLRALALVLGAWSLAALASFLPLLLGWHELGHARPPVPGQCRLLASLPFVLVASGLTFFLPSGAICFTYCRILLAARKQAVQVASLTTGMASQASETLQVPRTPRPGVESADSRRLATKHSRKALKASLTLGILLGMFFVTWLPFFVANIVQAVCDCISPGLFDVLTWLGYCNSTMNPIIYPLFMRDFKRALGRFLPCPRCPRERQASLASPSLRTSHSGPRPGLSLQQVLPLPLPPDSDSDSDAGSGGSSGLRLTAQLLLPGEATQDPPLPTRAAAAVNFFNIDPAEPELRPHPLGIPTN
row,Structure (SMILES),Ki [nM]
1,"NCCOc1cccc2c1c1cccc3c1n2[C@H](c1ccccc1)CO3 [Example 2, (R)−)-[(1-Phenyl-1,2-dihydro[1,4]oxazino[2,3,4-jk]carbazol-7-yl)oxy]ethanamine and its methanesulfonic acid salt]",1.8
2,"CC(C)NCCOc1cccc2c1c1cccc3c1n2C(c1ccccc1)CO3 (centres unmarked) [Example 5, N-isopropyl-N-{2-[(1-phenyl-1,2-dihydro[1,4]oxazino[2,3,4-jk]carbazol-7-yl)oxy]ethyl}amine and its maleic acid salt]",7.8

# Tested on: not given
# Assay: not given
# Conditions: not given
row,melting point [°C],Structure (SMILES)
1,105 to 107,"CCN(CC)CCOc1cccc2c1c1cccc3c1n2C(c1ccccc1)CO3 (centres unmarked) (as salt: maleic acid salt) [Example 3, N,N-Diethyl-2-[(1-phenyl-1,2-dihydro[1,4]oxazino[2,3,4-jk]carbazol-7-yl)oxy]-1-ethanamine and its maleic acid salt]"
2,105,"CCNCCOc1cccc2c1c1cccc3c1n2C(c1ccccc1)CO3.O=C(O)/C=C\C(=O)O (centres unmarked) [Example 6, N-Ethyl-2-[(1-phenyl-1,2-dihydro[1,4]oxazino[2,3,4-jk]carbazol-7-yl)oxy]-ethanamine and its maleic acid salt]"
3,72,"c1ccc(C2COc3cccc4c5c(OCCN6CCNCC6)cccc5n2c34)cc1 (centres unmarked) [Example 13, 1-Phenyl-1,2-dihydro[1,4]oxazino[2,3,4-jk]carbazol-7-yl 2-(1-piperazinyl)ethyl ether]"
4,57,"CN1CCN(CCOc2cccc3c2c2cccc4c2n3C(c2ccccc2)CO4)CC1 (centres unmarked) [Example 14, 2-(4-Methyl-1-piperazinyl)ethyl 1-phenyl-1,2-dihydro[1,4]oxazino[2,3,4-jk]carbazol-7-yl ether]"
5,117 to 118,"CN(C)CCOc1cccc2c1c1cccc3c1n2C(c1ccccc1)CO3 (centres unmarked) [Example 18, N,N-dimethyl-2-[(1-phenyl-1,2-dihydro[1,4]oxazino[2,3,4-jk]carbazol-7-yl)oxy]-1-ethanamine]"

row,Structure (SMILES),melting point [°C]
1,"NCCOc1cccc2c1c1cccc3c1n2[C@H](c1ccccc1)CO3 (as salt: sulfonic acid salt) [Example 2, (R)−)-[(1-Phenyl-1,2-dihydro[1,4]oxazino[2,3,4-jk]carbazol-7-yl)oxy]ethanamine and its methanesulfonic acid salt]",236
